We go through 8 compounds from patent US6274627A, “Conjugates of dithiocarbamate disulfides with pharmacologically active agents and uses therefor” (Medinox, Inc., priority 1999, dated 2001).

“Also recorded” adds a separate entry of the source. Bounds are passed on as bounds.

For one data set, the system named is esterase. Nature of the data set: Enzymatic hydrolysis of PDD-NSAIDs by esterase. In kind it is in vitro ADME. The note with it: for time within which the compound was decomposed into two compounds: esterase, PBS buffer, as described for compound 12. The procedure: The resulting solution was put in a water bath (37° C.) for 30 min and then at room temperature overnight.

The next data set deals with cancer patients. The note with it: cancer patients receiving adriamycin chemotherapy; cited from earlier work.
The conditions of data set [1]: iron-ICRF-187 complex, Fenton reaction; cited from earlier work.
The test system of data set [2] is Lewis male rats (M. tuberculosis adjuvant-induced arthritis). As to the kind of experiment: Chronic inflammation: rat adjuvant arthritis model. The note with it: for reduction of swelling compared to control by day 15: oral high doses: naproxen 10 mg/kg, days 5-8 and 11-14. In kind it is in vivo. The procedure:
Thus, paw volume increases (measured with a Plethysmometer) are reported as a function of time, and were measured in the injected feet of Lewis male rats in which arthritis was induced by intradermel injection of adjuvant into the footpad.
NSAIDs are useful in both chronic and acute inflammatory conditions. Efficacy in chronic inflammation can be estimated using the rat adjuvant arthritis model (Blackham et al. supra). In this model Lewis male rats (175-250 g) were injected intradermally in the footpad with M. tuberculosis powder suspended in mineral oil at 5 mg/ml. Progressive swelling of the uninjected paw and ankle joint between days 11 and 15 was measured by plethysmometry.

The test system of data set [3] is male Sprague-Dawley rats (stomach, gastric lesions). Nature of the data set: Gastric erosions in the rat gastropathy model. In kind it is in vivo. The conditions noted are these: oral; for length of the lesions (most of the lesions): corpus of the stomach; for number of gastric lesions, dose dependence: naproxen 15 and 30 mg/kg, PDD-Naproxen 27 & 54 mg/kg (equimolar).

Data set [4] concerns male Sprague-Dawley rats (carrageenan-injected paw). Nature of the data set: Acute inflammation: rat carrageenan-induced hindlimb edema model. In kind it is in vivo. The procedure:
Efficacy of NSAIDs in acute inflammation can be estimated by using intraplantar injection of carrageenan in the rat. Male Sprague-Dawley rats (200-250 g) were injected intradermally in the footpad with 50 μl of a 1% carrageenan solution in PBS. Swelling of the injected paw was measured at 2, 3, 5 & 7 hours using a plethysmometer.

A short description of data set [5]: Plasma pharmacokinetics of naproxen following oral administration of PDD-Naproxen or naproxen in rats.
The subject of data set [6] is gastrointestinal toxicity. The conditions noted are these: in vivo; cited from earlier work.
In a further data set the test system is COX-2. The conditions noted are these: cited from earlier work.
Another data set concerns nuclear factor kappa B. The conditions noted are these: intact cells; cited from earlier work.
[7] abbreviates: PDD-Naproxen (NOX-319) 18 mg/kg.

Consider `CC(C)Cc1ccc(C(C)C(=O)OCCCOC(=O)[C@@H]2CCCN2C(=S)SSC(=S)N2CCC[C@H]2C(=O)OCCCOC(=O)C(C)c2ccc(CC(C)C)cc2)cc1` (stereo partly shown) [Compound 16], for which the “time within which the compound was decomposed into two compounds” value in the data set with esterase is reported as at most 5 h.

For the compound `CC(C(=O)OCCCOC(=O)[C@@H]1CCCN1C(=S)SSC(=S)N1CCC[C@H]1C(=O)OCCCOC(=O)C(C)c1cccc(C(=O)c2ccccc2)c1)c1cccc(C(=O)c2ccccc2)c1` (stereo partly shown) [Compound 20], in the data set with esterase, the “time within which the compound was decomposed into two compounds” value is at most 5 h.

For the compound `COc1ccc2c(c1)c(CC(=O)OCCCOC(=O)[C@@H]1CCCN1C(=S)SSC(=S)N1CCC[C@H]1C(=O)OCCCOC(=O)Cc1c(C)n(C(=O)c3ccc(Cl)cc3)c3ccc(OC)cc13)c(C)n2C(=O)c1ccc(Cl)cc1` [Compound 24], in the data set with esterase, the “time within which the compound was decomposed into two compounds” value is at most 5 h.

On to `C[C@@H](CN1CC(=O)NC(=O)C1)N1CC(=O)NC(=O)C1` [ICRF-187], for which the “removal of iron from the anthracycline-iron complex, preventing cardiac toxicity” value in the data set with cancer patients is given as “effective for the removal of iron from the anthracycline-iron complex, therefore preventing the cardiac toxicity”. Further, in [1], the “promotion of hydroxyl radical generation” value is “very effective at promoting hydroxyl radical generation”.

Consider `COc1ccc2cc([C@H](C)C(=O)O)ccc2c1` [Naproxen, (S)-(+)-methoxy-α-methyl-2-naphthaleneacetic acid, reference compound], for which the “reduction of swelling compared to control by day 15” value in data set [2] (setting [7]) is on record as “approximately 70%”. For the same compound, in data set [3], the “length of the lesions (most of the lesions)” value is recorded as “less than 2 mm”. Further, the “number of gastric lesions, dose dependence” value in data set [3] (3 h) was “dose-related number of lesions”.

With `COc1ccc2cc(C(C)C(=O)OCCCOC(=O)C3CCCN3C(=S)SSC(=S)N3CCCC3C(=O)OCCCOC(=O)C(C)c3ccc4cc(OC)ccc4c3)ccc2c1` (stereo not shown) [PDD-Naproxen], in [2] (setting [7]), the “reduction of swelling compared to control by day 15” value is listed as “approximately 70%”. In addition, the “chronic antiinflammatory effect, overall” value in [2] (oral, equimolar doses, vs naproxen) was “antiinflammatory activity similar to naproxen; also recorded: antiinflammatory effects equal to those of naproxen; also recorded: effectiveness of PDD-Naproxen in the treatment of adjuvant-induced arthritis”. In [2] (oral, naproxen 1 mg/kg, PDD-Naproxen (NOX-319) 1.8 mg/kg), the “effect on swelling by day 15, lower doses” value is “slight effect by day 15”. In addition, the “reduction of swelling on days 13 through 15, high doses” value in data set [2] (oral, naproxen 10 mg/kg, PDD-Naproxen (NOX-319) 18 mg/kg) is reported as “comparable reduction of swelling”. For the same compound, the “gastric safety / tendency to cause gastric erosions, overall” value in data set [3] (relative to naproxen) is “has the ability to reduce the number of erosions in the corpus of the stomach; also recorded: tendency to cause gastric erosions is reduced; also recorded: improved gastric safety”. Also, the “number of gastric erosions, low dose” value in data set [3] (PDD-Naproxen 27 mg/kg vs naproxen 15 mg/kg, 6 animals in each group) is recorded as “fewer erosions than the low dose of naproxen, but statistical significance was not achieved”. In data set [3] (PDD-Naproxen 54 mg/kg vs naproxen 30 mg/kg, 3 h), the “number of gastric lesions, high dose” value was “significantly fewer lesions than the high dose naproxen group (ANOVA; p<0.005)”. The “length of the lesions (most of the lesions)” value in data set [3] is listed as “less than 2 mm”. Also, the “number of gastric lesions, dose dependence” value in [3] (3 h) is given as “dose-related number of lesions”. Moreover, the “reduction in paw swelling” value in [4] (oral 1 h before carrageenan, naproxen 10 mg/kg or PDD-Naproxen 18 mg/kg (equimolar)) was “reduced inflammation significantly at 2 and 3 hours, but started to wear off by 5 hours”. In addition, in data set [4] (oral, carrageenan model), the “acute antiinflammatory activity, overall” value is “orally active in rats, but slightly less effective vs acute inflammation than the parent drug; also recorded: antiinflammatory activity similar to naproxen; also recorded: alleviation of acute inflammation”. For the same compound, the “naproxen pharmacokinetic profile, overall” value in data set [5] (oral or IV, vs naproxen itself) is “better naproxen pharmacokinetic profiles than naproxen itself”. Also, the “AUCinf comparison, oral” value in data set [5] (oral, PDD-Naproxen vs naproxen) is listed as “no significant difference”. In addition, the decomposition by esterase result in the data set with esterase (33.3 units esterase in PBS buffer, 37° C. for 30 min, then room temperature overnight) is given as “decomposed into two compounds”.

Take `COc1ccc2cc(CCC(C)=O)ccc2c1` [nabumetone]: the “gastrointestinal toxicity relative to other NSAIDs on the market” value in data set [6] was “reduced gastrointestinal toxicity”. Also, in the data set on COX-2, the “selectivity for COX-2” value is on record as “marked selectivity for COX-2”.

On to `S=C(S)N1CCCC1` [pyrrolidine dithiocarbamate], for which, in the data set on nuclear factor kappa B, the “inhibition of nuclear factor kappa B” value is on record as “potent inhibitors of nuclear factor kappa B”.
